≈ marks a conversion by molar mass, not a printed value.
Assays:
Format in all cases: cell-based
[1] = system: S. aureus (ATCC 29213); assay: Antibacterial susceptibility testing (MIC, broth microdilution or agar dilution), S. aureus; details: Staphylococcus aureus, ATCC29213; read-out: S. aureus (ATCC 29213) minimal inhibitory concentration (MIC)
Method in brief: (§1)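 MICs by CLSI (M7-A7) broth microdilution or agar dilution, against reference ATCC strains as listed.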

[2] = system: E. faecalis (ATCC 29212); assay: Antibacterial susceptibility testing (MIC, broth microdilution or agar dilution), E. faecalis; details: Enterococcus faecalis, ATCC29212; read-out: E. faecalis (ATCC 29212) minimal inhibitory concentration (MIC)
Procedure: (§2) Compounds of the invention were tested for antimicrobial activity by susceptibility testing in liquid or on solid media. MICs for compounds against each strain were determined by the broth microdilution or agar dilution method according to the guidelines of the Clinical Laboratories and Standards Institute, formerly the National Committee for Clinical Laboratory Standards (Clinical Laboratories and Standards Institute. Methods for Dilution Antimicrobial Susceptibility Tests for Bacteria That Grow Aerobically; Approved Standard—Seventh Edition. Document M7-A7. CLSI, Wayne, Pa., 2006; Clinical Laboratories and Standards Institute. The Gram positive bacterial strains tested include S. aureus (Staphylococcus aureus (Isolate ID ATCC 29213)), E. faecalis (Enterococcus faecalis (Isolate ID ATCC 29212)) and S. pyogenes (Streptococcus pyogenes (Isolate ID ATCC 51339)). The Gram negative bacterial strains tested include H. influenzae (Haemophilus influenzae (Isolate ID ATCC 49247)).

[3] = system: S. pyogenes (ATCC 51339); assay: Antibacterial susceptibility testing (MIC, broth microdilution or agar dilution), S. pyogenes; details: Streptococcus pyogenes, ATCC51339; read-out: S. pyogenes (ATCC 51339) minimal inhibitory concentration (MIC)
Method in brief: as §1

[4] = system: H. influenzae (ATCC 49247); assay: Antibacterial susceptibility testing (MIC, broth microdilution or agar dilution), H. influenzae; details: Haemophilus influenzae, ATCC49247; read-out: H. influenzae (ATCC 49247) minimal inhibitory concentration (MIC)
Procedure: as §2

SMILES	MIC [1] [µg/mL]	MIC [2] [µg/mL]	MIC [3] [µg/mL]	MIC [4] [µg/mL]
CCNC(=O)Nc1cc(Nc2cccnc2)c(C(=O)Nc2cccnc2)cn1 [Compound 19, 6-(3-ethylureido)-N-(pyridin-3-yl)-4-(pyridin-3-ylamino)nicotinamide]	8 (≈ 21.2 µM)	≤ 1	≤ 1	–
CCNC(=O)Nc1cc(Nc2ccccc2)c(C(=O)Nc2cccnc2)cn1 [Compound 20, 6-(3-ethylureido)-4-(phenylamino)-N-(pyridin-3-yl)nicotinamide]	≤ 1	≤ 1	≤ 1	–
CCNC(=O)Nc1cc(Nc2ccccc2)c(C(=O)Nc2ccc(N3CCOCC3)nc2)cn1 [Compound 23, 6-(3-ethylureido)-N-(6-morpholinopyridin-3-yl)-4-(phenylamino)nicotinamide]	2 (≈ 4.33 µM)	≤ 1	≤ 1	–
CCNC(=O)Nc1cc(Nc2ccccc2)c(C(=O)Nc2ccc(NC(C)=O)nc2)cn1 [Compound 24, N-(6-acetamidopyridin-3-yl)-6-(3-ethylureido)-4-(phenylamino)nicotinamide]	2 (≈ 4.61 µM)	≤ 1	≤ 1	–
CCNC(=O)Nc1cc(Nc2ccccc2)c(C(=O)Nc2ccc(C(=O)OC)cc2)cn1 [Compound 67, methyl 4-(6-(3-ethylureido)-4-(phenylamino)nicotinamido)benzoate]	≤ 1	–	≤ 1	4 (≈ 9.23 µM)
CCNC(=O)Nc1cc(Nc2ccccc2)c(C(=O)Nc2ccc(C(=O)O)cc2)cn1 [Compound 68, 4-(6-(3-ethylureido)-4-(phenylamino)nicotinamido)benzoic acid]	8 (≈ 19.1 µM)	–	≤ 1	4 (≈ 9.54 µM)
CCNC(=O)Nc1cc(Nc2ccccc2)c(C(=O)Nc2ccc(CC(=O)OCC)cc2)cn1 [Compound 70, ethyl 2-(4-(6-(3-ethylureido)-4-(phenylamino)nicotinamido)phenyl)acetate]	≤ 1	–	≤ 1	2 (≈ 4.33 µM)
CCNC(=O)Nc1cc(Nc2ccccc2)c(C(=O)Nc2ccn(C)c(=O)c2)cn1 [Compound 134, 6-[(Ethylcarbamoyl)amino]-N-(1-methyl-2-oxo-1,2-dihydropyridin-4-yl)-4-(phenylamino)pyridine-3-carboxamide]	4 (≈ 9.84 µM)	–	–	8 (≈ 19.7 µM)
CCNC(=O)Nc1cc(Nc2ccccc2)c(C(=O)Nc2ccc(/C=C/C(=O)O)cc2)cn1 [Compound 137, (2E)-3-{4-[({6-[(ethylcarbamoyl)amino]-4-(phenylamino)pyridin-3-yl}carbonyl)amino]phenyl}prop-2-enoic acid]	2 (≈ 4.49 µM)	–	–	4 (≈ 8.98 µM)
CCNC(=O)Nc1cc(Nc2ccc(Cl)cc2)c(C(=O)Nc2ccc(CCC(=O)OC)cc2)cn1 [Compound 148, methyl 3-{4-[({4-[(4-chlorophenyl)amino]-6-[(ethylcarbamoyl)amino]pyridin-3-yl}carbonyl)amino]phenyl}propanoate]	≤ 1	–	–	4 (≈ 8.07 µM)
CCNC(=O)Nc1cc(Nc2ccc(Cl)cc2)c(C(=O)Nc2ccc(CCC(=O)O)cc2)cn1 [Compound 149, 3-{4-[({4-[(4-chlorophenyl)amino]-6-[(ethylcarbamoyl)amino]pyridin-3-yl}carbonyl)amino]phenyl}propanoic acid]	≤ 1	–	–	4 (≈ 8.3 µM)
CCNC(=O)Nc1cc(Nc2ccc(Cl)cc2)c(C(=O)Nc2ccc(CC(C)(C)C(=O)O)cc2)cn1 [Compound 160, 3-{4-[({4-[(4-chlorophenyl)amino]-6-[(ethylcarbamoyl)amino]pyridin-3-yl}carbonyl)amino]phenyl}-2,2-dimethylpropanoic acid]	≤ 1	–	–	8 (≈ 15.7 µM)
CCNC(=O)Nc1cc(Nc2cc(F)cc(F)c2)c(C(=O)Nc2ccc(CCc3nnn[nH]3)cc2)cn1 [Compound 161, 4-(3,5-difluoroanilino)-6-(ethylcarbamoylamino)-N-[4-[2-(1H-tetrazol-5-yl)ethyl]phenyl]pyridine-3-carboxamide]	≤ 1	–	–	8 (≈ 15.8 µM)

The next lines start with the values.

MIC [1] [µg/mL]	MIC [2] [µg/mL]	MIC [3] [µg/mL]	MIC [4] [µg/mL]	SMILES
≤ 1	–	–	8 (≈ 19.6 µM)	CCNC(=O)Nc1cc(Nc2ccnc(OC)c2)c(C(=O)Nc2cccnc2)cn1 [Compound 163]
16 (≈ 35.7 µM)	–	–	8 (≈ 17.8 µM)	CCNC(=O)Nc1cc(Nc2ccccc2)c(C(=O)Nc2ccc(CCC(=O)O)nc2)cn1 [Compound 166, 3-{5-[({6-[(ethylcarbamoyl)amino]-4-(phenylamino)pyridin-3-yl}carbonyl)amino]pyridin-2-yl}propanoic acid]
2 (≈ 3.96 µM)	–	–	8 (≈ 15.9 µM)	CCNC(=O)Nc1cc(Nc2ccccc2)c(C(=O)Nc2cnc(NCC3(C(=O)O)CCC3)nc2)cn1 [Compound 168, 1-[({5-[({6-[(ethylcarbamoyl)amino]-4-(phenylamino)pyridin-3-yl}carbonyl)amino]pyrimidin-2-yl}amino)methyl] cyclobutanecarboxylic acid]
2 (≈ 4.35 µM)	–	–	2 (≈ 4.35 µM)	CCNC(=O)Nc1cc(Nc2ccccc2)c(C(=O)Nc2ccc([C@@H]3C[C@H]3C(=O)O)cc2)cn1 [Compound 169]
4 (≈ 8.39 µM)	–	–	4 (≈ 8.39 µM)	CCNC(=O)Nc1cc(Nc2cccnc2)c(C(=O)Nc2ccc(CC(C)(C)C(=O)O)cc2)cn1 [Compound 171, 3-{4-[({6-[(ethylcarbamoyl)amino]-4-(pyridin-3-ylamino)pyridin-3-yl}carbonyl)amino]phenyl}-2,2-dimethylpropanoic acid]
≤ 1	–	–	4 (≈ 8.1 µM)	CCNC(=O)Nc1cc(Nc2ccc(F)cc2)c(C(=O)Nc2ccc(CC(C)(C)C(=O)O)cc2)cn1 [Compound 175, 3-{4-[({6-[(ethylcarbamoyl)amino]-4-[(4-fluorophenyl)amino]pyridin-3-yl}carbonyl)amino]phenyl}-2,2-dimethylpropanoic acid]
≤ 1	–	–	4 (≈ 7.76 µM)	CCNC(=O)Nc1cc(Nc2ccc(C(F)(F)F)cc2)c(C(=O)Nc2ccc(CCC(=O)O)cc2)cn1 [Compound 176, 3-[4-[[6-(ethylcarbamoylamino)-4-[4-(trifluoromethyl)anilino]pyridine-3-carbonyl]amino]phenyl]propanoic acid]
≤ 1	–	–	4 (≈ 7.84 µM)	CCNC(=O)Nc1cc(Nc2cccc(Cl)c2)c(C(=O)Nc2ccc(CC(C)(C)C(=O)O)cc2)cn1 [Compound 177, 3-{4-[({4-[(3-chlorophenyl)amino]-6-[(ethylcarbamoyl)amino]pyridin-3-yl}carbonyl)amino]phenyl}-2,2-dimethylpropanoic acid]
≤ 1	–	–	4 (≈ 7.91 µM)	CCNC(=O)Nc1cc(Nc2cccc(OC)c2)c(C(=O)Nc2ccc(CC(C)(C)C(=O)O)cc2)cn1 [Compound 178, 3-{4-[({6-[(ethylcarbamoyl)amino]-4-[(3-methoxyphenyl)amino]pyridin-3-yl}carbonyl)amino]phenyl}-2,2-dimethylpropanoic acid]
≤ 1	–	–	8 (≈ 17.3 µM)	CCNC(=O)Nc1cc(Nc2ccccc2)c(C(=O)Nc2ccc(CCC(=O)OC)nc2)cn1 [Compound 179, methyl 3-{5-[({6-[(ethylcarbamoyl)amino]-4-(phenylamino)pyridin-3-yl}carbonyl)amino]pyridin-2-yl}propanoate]
–	–	–	2 (≈ 4.1 µM)	CCNC(=O)Nc1cc(Nc2ccccc2)c(C(=O)Nc2ccc([C@@H]3C[C@H]3C(=O)OCC)cc2)cn1 [Compound 180]
≤ 1	–	–	4 (≈ 8.1 µM)	CCNC(=O)Nc1cc(Nc2ccccc2F)c(C(=O)Nc2ccc(CC(C)(C)C(=O)O)cc2)cn1 [Compound 182, 3-{4-[({6-[(ethylcarbamoyl)amino]-4-[(2-fluorophenyl)amino]pyridin-3-yl}carbonyl)amino]phenyl}-2,2-dimethylpropanoic acid]
≤ 1	–	–	4 (≈ 7.84 µM)	CCNC(=O)Nc1cc(Nc2ccccc2Cl)c(C(=O)Nc2ccc(CC(C)(C)C(=O)O)cc2)cn1 [Compound 183, 3-{4-[({4-[(2-chlorophenyl)amino]-6-[(ethylcarbamoyl)amino]pyridin-3-yl}carbonyl)amino]phenyl}-2,2-dimethylpropanoic acid]
≤ 1	–	–	4 (≈ 7.64 µM)	CCNC(=O)Nc1cc(Nc2ccc(F)c(OC)c2)c(C(=O)Nc2ccc(CC(C)(C)C(=O)O)cc2)cn1 [Compound 184, 3-{4-[({6-[(ethylcarbamoyl)amino]-4-[(4-fluoro-3-methoxyphenyl)amino]pyridin-3-yl}carbonyl)amino]phenyl}-2,2-dimethylpropanoic acid]
≤ 1	–	–	2 (≈ 3.82 µM)	CCNC(=O)Nc1cc(Nc2ccc(OC)c(F)c2)c(C(=O)Nc2ccc(CC(C)(C)C(=O)O)cc2)cn1 [Compound 190, 3-{4-[({6-[(ethylcarbamoyl)amino]-4-[(3-fluoro-4-methoxyphenyl)amino]pyridin-3-yl}carbonyl)amino]phenyl}-2,2-dimethylpropanoic acid]
≤ 1	–	–	2 (≈ 4.05 µM)	CCNC(=O)Nc1cc(Nc2ccc(Cl)cc2)c(C(=O)Nc2ccc([C@@H]3C[C@H]3C(=O)O)cc2)cn1 [Compound 192, (1R,2R)-2-{4-[({4-[(4-chlorophenyl)amino]-6-[(ethylcarbamoyl)amino]pyridin-3-yl}carbonyl)amino]phenyl}cyclopropanecarboxylic acid]

— US9060515B2, “Heterocyclic urea compounds” (BIOTA EUROPE LTD, priority 2011, dated 2015)
